Results taken from PubChem BioAssay AID248 (DTP/NCI, 2004).
Several values for one entry are separate records, joined by “and”; a condition that tells them apart may be missing. Identical values can stand only once. Inconclusive results and toxic doses are left out. No stated cut-off is given here; in the data, active means T/C of 150% or more; inactive means T/C below 125%.

System: L1210 leukemia ip in BDF1 mice, survival T/C
Assay: NCI In Vivo Anticancer Drug Screen. Data for tumor model L1210 Leukemia (intraperitoneal) in B6D2F1 (BDF1) mice
Conditions: higher = longer survival
Procedure, shortened: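 Read-out is survival time, reported as the treated-group measurement over the vehicle-control measurement.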

[1] = endpoint: mean survival time, dose: 50.0 mg/kg/injection, schedule: Q04DX002 (ip), vehicle: saline
[2] = endpoint: mean survival time, dose: 100.0 mg/kg/injection, schedule: Q04DX002 (ip), vehicle: saline
[3] = endpoint: mean survival time, dose: 100.0 mg/kg/injection, schedule: Q01DX009 (ip), vehicle: Klucel (hydroxypropylcellulose) (HPC)
[4] = endpoint: mean survival time, dose: 100.0 mg/kg/injection, schedule: Q04DX003 (ip), vehicle: Klucel (hydroxypropylcellulose) (HPC)
[5] = endpoint: mean survival time, dose: 200.0 mg/kg/injection, schedule: Q04DX003 (ip), vehicle: Klucel (hydroxypropylcellulose) (HPC)
[6] = endpoint: mean survival time, dose: 400.0 mg/kg/injection, schedule: Q04DX003 (ip), vehicle: Klucel (hydroxypropylcellulose) (HPC)

Measured: T/C

Cc1c(N)nc([C@H](CC(N)=O)NC[C@H](N)C(N)=O)nc1C(=O)N[C@H](C(=O)N[C@H](C)[C@@H](O)[C@H](C)C(=O)N[C@H](C(=O)NCCc1nc(-c2nc(C(=O)NCCC[S+](C)C)cs2)cs1)[C@@H](C)O)C(OC1OC(CO)C(O)C(O)C1OC1OC(CO)C(O)C(OC(N)=O)C1O)c1cnc[nH]1 (some centres not stated)
inactive: endpoint: mean survival time, dose: 0.35 mg/kg/injection, schedule: Q01DX009 (ip), vehicle: saline 99 % of control and 100 % of control | endpoint: mean survival time, dose: 0.7 mg/kg/injection, schedule: Q01DX009 (ip), vehicle: saline 100 % of control | endpoint: mean survival time, dose: 1.3 mg/kg/injection, schedule: Q01DX009 (ip), vehicle: saline 99 % of control and 107 % of control | endpoint: mean survival time, dose: 2.0 mg/kg/injection, schedule: Q01DX009 (ip), vehicle: saline 101 % of control | endpoint: mean survival time, dose: 2.0 mg/kg/injection, schedule: Q04DX002 (ip), vehicle: saline 97 % of control | endpoint: mean survival time, dose: 2.5 mg/kg/injection, schedule: Q01DX009 (ip), vehicle: saline 110 % of control and 119 % of control | endpoint: mean survival time, dose: 4.0 mg/kg/injection, schedule: Q01DX009 (ip), vehicle: saline 107 % of control and 109 % of control and 112 % of control | endpoint: mean survival time, dose: 4.0 mg/kg/injection, schedule: Q04DX002 (ip), vehicle: saline 103 % of control and 105 % of control | endpoint: mean survival time, dose: 5.0 mg/kg/injection, schedule: Q01DX009 (ip), vehicle: saline 94 % of control and 107 % of control | endpoint: mean survival time, dose: 5.8 mg/kg/injection, schedule: Q01DX009 (ip), vehicle: clinical formulation 93 % of control | endpoint: mean survival time, dose: 7.81 mg/kg/injection, schedule: Q01DX009 (ip), vehicle: saline 109 % of control | endpoint: mean survival time, dose: 8.0 mg/kg/injection, schedule: Q01DX009 (ip), vehicle: saline 104 % of control and 109 % of control and 110 % of control | endpoint: mean survival time, dose: 8.0 mg/kg/injection, schedule: Q04DX002 (ip), vehicle: saline 100 % of control and 108 % of control | endpoint: mean survival time, dose: 8.7 mg/kg/injection, schedule: Q01DX009 (ip), vehicle: clinical formulation 95 % of control | endpoint: mean survival time, dose: 10.0 mg/kg/injection, schedule: Q01DX009 (ip), vehicle: saline 106 % of control and 110 % of control | endpoint: mean survival time, dose: 13.0 mg/kg/injection, schedule: Q01DX009 (ip), vehicle: clinical formulation 92 % of control | endpoint: mean survival time, dose: 15.62 mg/kg/injection, schedule: Q01DX009 (ip), vehicle: saline 104 % of control | endpoint: mean survival time, dose: 16.0 mg/kg/injection, schedule: Q01DX009 (ip), vehicle: saline 93 % of control and 108 % of control and 114 % of control | endpoint: mean survival time, dose: 16.0 mg/kg/injection, schedule: Q04DX002 (ip), vehicle: saline 97 % of control and 103 % of control | endpoint: mean survival time, dose: 20.0 mg/kg/injection, schedule: Q01DX009 (ip), vehicle: clinical formulation 93 % of control | endpoint: mean survival time, dose: 30.0 mg/kg/injection, schedule: Q01DX009 (ip), vehicle: clinical formulation 87 % of control | endpoint: mean survival time, dose: 31.0 mg/kg/injection, schedule: Q04DX002 (ip), vehicle: saline 103 % of control and 106 % of control | endpoint: mean survival time, dose: 31.25 mg/kg/injection, schedule: Q01DX001 (ip), vehicle: saline 100 % of control | endpoint: mean survival time, dose: 31.25 mg/kg/injection, schedule: Q01DX009 (ip), vehicle: saline 116 % of control | endpoint: mean survival time, dose: 32.0 mg/kg/injection, schedule: Q01DX009 (ip), vehicle: saline 113 % of control and 91 % of control and 92 % of control | endpoint: mean survival time, dose: 62.0 mg/kg/injection, schedule: Q04DX002 (ip), vehicle: saline 93 % of control and 101 % of control | endpoint: mean survival time, dose: 62.5 mg/kg/injection, schedule: Q01DX001 (ip), vehicle: saline 122 % of control | endpoint: mean survival time, dose: 62.5 mg/kg/injection, schedule: Q01DX009 (ip), vehicle: saline 107 % of control | endpoint: mean survival time, dose: 125.0 mg/kg/injection, schedule: Q01DX001 (ip), vehicle: saline 106 % of control | endpoint: mean survival time, dose: 125.0 mg/kg/injection, schedule: Q01DX009 (ip), vehicle: saline 97 % of control | endpoint: mean survival time, dose: 250.0 mg/kg/injection, schedule: Q01DX001 (ip), vehicle: saline 106 % of control | endpoint: median survival time, dose: 3.0 mg/kg/injection, schedule: Q01DX009 (ip), vehicle: saline 99 % of control | endpoint: median survival time, dose: 4.0 mg/kg/injection, schedule: Q01DX009 (ip), vehicle: saline 100 % of control and 110 % of control | endpoint: median survival time, dose: 5.0 mg/kg/injection, schedule: Q01DX009 (ip), vehicle: saline 101 % of control | endpoint: median survival time, dose: 8.0 mg/kg/injection, schedule: Q01DX009 (ip), vehicle: saline 106 % of control and 120 % of control | endpoint: median survival time, dose: 8.4 mg/kg/injection, schedule: Q01DX009 (ip), vehicle: saline 98 % of control | endpoint: median survival time, dose: 14.0 mg/kg/injection, schedule: Q01DX009 (ip), vehicle: saline 96 % of control | endpoint: median survival time, dose: 16.0 mg/kg/injection, schedule: Q01DX009 (ip), vehicle: saline 106 % of control | endpoint: median survival time, dose: 23.0 mg/kg/injection, schedule: Q01DX009 (ip), vehicle: saline 96 % of control | endpoint: median survival time, dose: 32.0 mg/kg/injection, schedule: Q01DX009 (ip), vehicle: saline 100 % of control | endpoint: median survival time, dose: 39.0 mg/kg/injection, schedule: Q01DX009 (ip), vehicle: saline 88 % of control

Oc1[nH]c2ccccc2c1N=NC(=S)Nc1ccccc1
inactive: endpoint: mean survival time, dose: 75.0 mg/kg/injection, schedule: Q01DX001 (ip), vehicle: saline 91 % of control | endpoint: mean survival time, dose: 150.0 mg/kg/injection, schedule: Q01DX001 (ip), vehicle: saline 87 % of control

O=C(O)C(CSC(c1ccccc1)c1ccccc1)N1C(=O)c2ccccc2C1=O (configuration not stated)
inactive: endpoint: mean survival time, dose: 75.0 mg/kg/injection, schedule: Q01DX009 (ip), vehicle: Klucel (hydroxypropylcellulose) (HPC) 102 % of control | endpoint: mean survival time, dose: 75.0 mg/kg/injection, schedule: Q04DX003 (ip), vehicle: Klucel (hydroxypropylcellulose) (HPC) 97 % of control | endpoint: mean survival time, dose: 150.0 mg/kg/injection, schedule: Q01DX009 (ip), vehicle: Klucel (hydroxypropylcellulose) (HPC) 98 % of control | endpoint: mean survival time, dose: 150.0 mg/kg/injection, schedule: Q04DX003 (ip), vehicle: Klucel (hydroxypropylcellulose) (HPC) 109 % of control | endpoint: mean survival time, dose: 300.0 mg/kg/injection, schedule: Q01DX009 (ip), vehicle: Klucel (hydroxypropylcellulose) (HPC) 104 % of control | endpoint: mean survival time, dose: 300.0 mg/kg/injection, schedule: Q04DX003 (ip), vehicle: Klucel (hydroxypropylcellulose) (HPC) 94 % of control

C1CCC2CCCCC2C1 (configuration not stated)
inactive: endpoint: mean survival time, dose: 3.13 mg/kg/injection, schedule: Q04DX002 (ip), vehicle: saline with Tween-80 100 % of control | endpoint: mean survival time, dose: 6.25 mg/kg/injection, schedule: Q04DX002 (ip), vehicle: saline with Tween-80 103 % of control | endpoint: mean survival time, dose: 12.5 mg/kg/injection, schedule: Q04DX002 (ip), vehicle: saline with Tween-80 103 % of control | [1] 98 % of control | [2] 91 % of control | endpoint: mean survival time, dose: 200.0 mg/kg/injection, schedule: Q04DX002 (ip), vehicle: saline 91 % of control | endpoint: mean survival time, dose: 400.0 mg/kg/injection, schedule: Q04DX002 (ip), vehicle: saline 91 % of control

N#Cc1cscc1C#N
inactive: endpoint: mean survival time, dose: 12.5 mg/kg/injection, schedule: Q01DX009 (ip), vehicle: Klucel (hydroxypropylcellulose) (HPC) 96 % of control | endpoint: mean survival time, dose: 25.0 mg/kg/injection, schedule: Q01DX009 (ip), vehicle: Klucel (hydroxypropylcellulose) (HPC) 92 % of control | endpoint: mean survival time, dose: 50.0 mg/kg/injection, schedule: Q01DX009 (ip), vehicle: Klucel (hydroxypropylcellulose) (HPC) 97 % of control | [3] 88 % of control | [4] 111 % of control | [5] 100 % of control | [6] 104 % of control

FC(F)(F)/C([S-])=C(/[S-])C(F)(F)F.FC(F)(F)/C([S-])=C(/[S-])C(F)(F)F.FC(F)(F)/C([S-])=C(/[S-])C(F)(F)F.FC(F)(F)/C([S-])=C(/[S-])C(F)(F)F.[Co+3].[Co+3]
inactive: endpoint: mean survival time, dose: 12.5 mg/kg/injection, schedule: Q01DX009 (ip), vehicle: other 113 % of control | endpoint: mean survival time, dose: 25.0 mg/kg/injection, schedule: Q01DX009 (ip), vehicle: other 104 % of control

CCC1CN2C(=N1)c1ccccc1-c1cc([N+](=O)[O-])ccc12 (configuration not stated)
inactive: [3] 101 % of control | [4] 99 % of control | endpoint: mean survival time, dose: 200.0 mg/kg/injection, schedule: Q01DX009 (ip), vehicle: Klucel (hydroxypropylcellulose) (HPC) 104 % of control | [5] 106 % of control | endpoint: mean survival time, dose: 400.0 mg/kg/injection, schedule: Q01DX009 (ip), vehicle: Klucel (hydroxypropylcellulose) (HPC) 95 % of control | [6] 97 % of control

CC12CCC3C(CCC4C(C)(C(=O)O)CCCC34C)(CC1=O)C2 (configuration not stated)
inactive: endpoint: mean survival time, dose: 100.0 mg/kg/injection, schedule: Q01DX001 (ip), vehicle: saline with Tween-80 92 % of control | endpoint: mean survival time, dose: 200.0 mg/kg/injection, schedule: Q01DX001 (ip), vehicle: saline with Tween-80 95 % of control

COc1cc(/C=N/Nc2cc(=O)[nH]c(N)n2)cc(OC)c1OC
inactive: [4] 98 % of control | [5] 100 % of control | [6] 100 % of control

CCCCC(CC)CP(=O)(CC(CC)CCCC)CC(CC)CCCC (configuration not stated)
inactive: endpoint: mean survival time, dose: 55.0 mg/kg/injection, schedule: Q01DX Z (ip), vehicle: methylcellulose (MC) 104 % of control | endpoint: mean survival time, dose: 83.0 mg/kg/injection, schedule: Q01DX Z (ip), vehicle: methylcellulose (MC) 100 % of control | endpoint: mean survival time, dose: 125.0 mg/kg/injection, schedule: Q01DX Z (ip), vehicle: methylcellulose (MC) 108 % of control

CCCC(C)(C)N
inactive: endpoint: mean survival time, dose: 25.0 mg/kg/injection, schedule: Q04DX002 (ip), vehicle: saline 97 % of control | [1] 90 % of control | [2] 103 % of control
